Series [1] is described as follows: Liver microsomal metabolism experiment (metabolic stability). In kind it is in vitro ADME. To be noted: pH 7.4; mouse liver microsomes 0.5 mg/mL, compound 1 μM. The procedure: Microsome assay: mouse liver microsomes: 0.5 mg/mL, Xenotech; coenzyme (NADPH/NADH): 1 mM, Sigma Life Science; magnesium chloride: 5 mM, 100 mM phosphate buffer (pH 7.4).
Preparation of stock solutions: Powder of the compounds were accurately weighed and dissolved in DMSO to 5 mM.
Preparation of phosphate buffer (100 mM, pH7.4): A pre-prepared 0.5M potassium dihydrogen phosphate (150 mL) was mixed with 0.5M dibasic potassium phosphate (700 mL). The pH of the mixture was adjusted to 7.4 with 0.5M dibasic potassium phosphate solution. The mixture was diluted 5-fold with ultrapure water before use, and magnesium chloride was added to obtain a phosphate buffer (100 mM) containing 100 mM potassium phosphate, 3.3 mM magnesium chloride, pH 7.4.
A NADPH regeneration system solution (containing 6.5 mM NADP, 16.5 mM G-6-P, 3 U/mL G-6-P D, 3.3 mM magnesium chloride) was prepared and placed on wet ice prior to use.
Preparation of stop solution: an acetonitrile solution containing 50 ng/mL propranolol hydrochloride and 200 ng/mL tolbutamide (internal standard). 25057.5 μL of phosphate buffer (pH 7.4) was taken into a 50 mL centrifuge tube, to which 812.5 μL mouse liver microsomes were added, and mixed to obtain a liver microsome dilution with a protein concentration of 0.625 mg/mL.
Incubation of the samples: The stock solutions of the respective compounds were respectively diluted to 0.25 mM with an aqueous solution containing 70% acetonitrile, and used as a working solution, ready for use. 398 μL of the dilution of human liver microsomes or rat mouse liver microsomes were added to 96-well incubation plates (N=2), respectively, and 2 μL of 0.25 mM working solution was added and mixed.
Metabolic stability assay: 300 μL of pre-chilled stop solution was added to each well of 96-well deep well plates and placed on ice as stop plates. The 96-well incubation plates and NADPH regeneration system were placed in a 37° C. water bath box, shaken at 100 rpm and pre-incubated for 5 min. 80 μL of incubation solution was taken out from each well of the incubation plates and added to the stop plates, mixed, and replenished with 20 μL of NADPH regeneration system solution as a 0-min sample. 80 μL of NADPH regeneration system solution was added to each well of the incubation plates to start the reaction and start counting. […] Separately, 100 μL of the reaction solutions was taken at 10, 30, and 90 min reaction, respectively, added to stop plates, and vortexed for 3 minutes to terminate the reaction. The stop plates were centrifuged at 5000×g at 4° C. for 10 min. 100 μL of the supernatant was added to a 96-well plate to which 100 μL of distilled water was previously added, mixed, and analyzed by LC-MS/MS.
Data analysis: The peak areas of the corresponding compounds and internal standard were detected by LC-MS/MS system, and the ratio of the peak area of the compounds to the internal standard was calculated.

Series [2] is described as follows: Pharmacokinetic experiment in rats. As to conditions: male SD rats, i.g., 3 mg/kg; for AUC(0-t) / Cmax / MRT / Tmax: rat, plasma, po. The series is classed as in vivo, SD rat. The procedure: Experimental Objective: To investigate the pharmacokinetic behavior of the compounds of the present disclosure after the rats being administered with the test compounds.
Species and strain: SD rat grade: SPF grade
Gender and quantity: male, 6
Experimental procedures: Before blood samples were collected, 20 μL of 2 M sodium fluoride solution (esterase inhibitor) was previously added to an EDTA-K2 anticoagulant tube, dried in an 80° C. oven, and placed in a 4° C. refrigerator.
Rats (male, weighing 187 to 197 g) were randomly divided into 2 groups, and were fasted overnight in the afternoon before the experiment but were allowed to drink water freely. Food was given 4 hours after the administration. Group A was given Venetoclaxr (3 mg/kg), and group B was given example compounds 1 to 7 (3 mg/kg). About 100-200 μL of blood was taken from the orbital vein of rats at 15 min, 30 min, 1, 2, 3, 5, 8 and 10 h after administration, placed in a 0.5 mL Eppendorf tube with EDTA-K2 anticoagulant and mixed immediately. After anticoagulation, the tube was gently inverted 5-6 times as quickly as possible. After the blood was taken, it was placed in an ice box, and then within 30 min, the blood sample was centrifuged for 10 min at 4000 rpm and 4° C. to separate the plasma. Immediately after collection of all plasma, it was stored at −20° C. The concentration of the drug in plasma at each time point was determined after sample collection at all time points.

In series [1], `[2H]C1([2H])N(CC2=C(c3ccc(Cl)cc3)CC(C)(C)CC2)C([2H])([2H])C([2H])([2H])N(c2ccc(C(=O)NS(=O)(=O)c3ccc(NCC4CCOCC4)c([N+](=O)[O-])c3)c(Oc3cnc4[nH]ccc4c3)c2)C1([2H])[2H]` (single isomer, unassigned) [Compound T-5, 4-(4-{[2-(4-chlorophenyl)-4,4-dimethylcyclohex-1-en-1-yl]methyl}piperazin-1-yl-2,2,3,3,5,5,6,6-d8)-N-({3-nitro-4-[(tetrahydro-2H-pyran-4-ylmethyl)amino]phenyl}sulfonyl)-2-(1H-pyrrolo[2,3-b]pyridin-5-yloxy)benzamide] came in with a half-life at 1 μM of 1.52 h and a microsomal CLint at 1 μM of 15.2 µL/min/mg.

In series [1], `CC1(C)CCC(CN2CCN(c3ccc(C(=O)NS(=O)(=O)c4ccc(NCC5CCOCC5)c([N+](=O)[O-])c4)c(Oc4cnc5[nH]ccc5c4)c3)CC2)=C(c2ccc(Cl)cc2)C1` [Venetoclax, 4-(4-{[2-(4-chlorophenyl)-4,4-dimethylcyclohex-1-en-1-yl]methyl}piperazin-1-yl)-N-({3-nitro-4-[(tetrahydro-2H-pyran-4-ylmethyl)amino]phenyl}sulfonyl)-2-(1H-pyrrolo[2,3-b]pyridin-5-yloxy)benzamide, reference compound] showed a half-life at 1 μM of 1.35 h and a microsomal CLint at 1 μM of 17.1 µL/min/mg. In series [2], the “Cl—pred” value was determined as 54.7 mL/min/kg, the F was found to be 3.47%, the AUC(0-t) is 3060 ng·h/mL and the Cmax was determined as 478 ng/mL. Moreover, in series [2], the mean residence time (MRT) was determined as 5.22 h and the time of peak concentration (Tmax) is 3.33 h.

In series [1], `[2H]C([2H])(Nc1ccc(S(=O)(=O)NC(=O)c2ccc(N3C([2H])([2H])C([2H])([2H])N(C([2H])([2H])C4=C(c5ccc(Cl)cc5)CC(C)(C)CC4)C([2H])([2H])C3([2H])[2H])cc2Oc2cnc3[nH]ccc3c2)cc1[N+](=O)[O-])C1CCOCC1` (single isomer, unassigned) [Compound T-7, 4-(4-{[2-(4-chlorophenyl)-4,4-dimethylcyclohex-1-en-1-yl]methyl-d2}piperazin-1-yl-2,2,3,3,5,5,6,6-d8)-N-({3-nitro-4-[(tetrahydro-2H-pyran-4-ylmethyl-d2)amino]phenyl}sulfonyl)-2-(1H-pyrrolo[2,3-b]pyridin-5-yloxy)benzamide] showed a half-life at 1 μM of 5.11 h and a microsomal CLint at 1 μM of 4.5 µL/min/mg.

In series [1], `[2H]C([2H])(Nc1ccc(S(=O)(=O)NC(=O)c2ccc(N3C([2H])([2H])C([2H])([2H])N(CC4=C(c5ccc(Cl)cc5)CC(C)(C)CC4)C([2H])([2H])C3([2H])[2H])cc2Oc2cnc3[nH]ccc3c2)cc1[N+](=O)[O-])C1CCOCC1` (single isomer, unassigned) [Compound T-6, 4-(4-{[2-(4-chlorophenyl)-4,4-dimethylcyclohex-1-en-1-yl]methyl}piperazin-1-yl-2,2,3,3,5,5,6,6-d8)-N-({3-nitro-4-[(tetrahydro-2H-pyran-4-ylmethyl-d2)amino]phenyl}sulfonyl)-2-(1H-pyrrolo[2,3-b]pyridin-5-yloxy)benzamide] gave a half-life at 1 μM of 1.3 h and a microsomal CLint at 1 μM of 17.8 µL/min/mg.

In series [1], `[2H]C([2H])(Nc1ccc(S(=O)(=O)NC(=O)c2ccc(N3CCN(C([2H])([2H])C4=C(c5ccc(Cl)cc5)CC(C)(C)CC4)CC3)cc2Oc2cnc3[nH]ccc3c2)cc1[N+](=O)[O-])C1CCOCC1` (single isomer, unassigned) [Compound T-2, 4-(4-{[2-(4-chlorophenyl)-4,4-dimethylcyclohex-1-en-1-yl]methyl-d2}piperazin-1-yl)-N-({3-nitro-4-[(tetrahydro-2H-pyran-4-ylmethyl-d2)amino]phenyl}sulfonyl)-2-(1H-pyrrolo[2,3-b]pyridin-5-yloxy)benzamide] registered a half-life at 1 μM of 2.38 h and a microsomal CLint at 1 μM of 9.7 µL/min/mg.

In series [1], `[2H]C([2H])(C1=C(c2ccc(Cl)cc2)CC(C)(C)CC1)N1C([2H])([2H])C([2H])([2H])N(c2ccc(C(=O)NS(=O)(=O)c3ccc(NCC4CCOCC4)c([N+](=O)[O-])c3)c(Oc3cnc4[nH]ccc4c3)c2)C([2H])([2H])C1([2H])[2H]` (single isomer, unassigned) [Compound T-4, 4-(4-{[2-(4-chlorophenyl)-4,4-dimethylcyclohex-1-en-1-yl]-methyl-d2}piperazin-1-yl-2,2,3,3,5,5,6,6-d8)-N-({3-nitro-4-[(tetrahydro-2H-pyran-4-ylmethyl)amino]phenyl}sulfonyl)-2-(1H-pyrrolo[2,3-b]pyridin-5-yloxy)benzamide] came in with a half-life at 1 μM of 1.12 h and a microsomal CLint at 1 μM of 20.7 µL/min/mg.

In series [1], `[2H]C([2H])(C1=C(c2ccc(Cl)cc2)CC(C)(C)CC1)N1CCN(c2ccc(C(=O)NS(=O)(=O)c3ccc(NCC4CCOCC4)c([N+](=O)[O-])c3)c(Oc3cnc4[nH]ccc4c3)c2)CC1` (single isomer, unassigned) [Compound T-1, 4-(4-{[2-(4-chlorophenyl)-4,4-dimethylcyclohex-1-en-1-yl]methyl-d2}piperazin-1-yl)-N-({3-nitro-4-[(tetrahydro-2H-pyran-4-ylmethyl)amino]phenyl}sulfonyl)-2-(1H-pyrrolo[2,3-b]pyridin-5-yloxy)benzamide] showed a half-life at 1 μM of 4.07 h and a microsomal CLint at 1 μM of 5.7 µL/min/mg.

For the molecule `[2H]C([2H])(Nc1ccc(S(=O)(=O)NC(=O)c2ccc(N3CCN(CC4=C(c5ccc(Cl)cc5)CC(C)(C)CC4)CC3)cc2Oc2cnc3[nH]ccc3c2)cc1[N+](=O)[O-])C1CCOCC1` (single isomer, unassigned) [Compound T-3, 4-(4-{[2-(4-chlorophenyl)-4,4-dimethylcyclohex-1-en-1-yl]methyl}piperazin-1-yl)-N-({3-nitro-4-[(tetrahydro-2H-pyran-4-ylmethyl-d2)amino]phenyl}sulfonyl)-2-(1H-pyrrolo[2,3-b]pyridin-5-yloxy)benzamide], in series [1], the half-life at 1 μM turned out to be 1.25 h and the intrinsic clearance (microsomal CLint) at 1 μM worked out at 18.4 µL/min/mg. In addition, in series [2], the “Cl—pred” value was 40.2 mL/min/kg, the F came out at 7.10%, the AUC(0-t) turned out to be 4430 ng·h/mL and the highest concentration (Cmax) came to 680 ng/mL. Further, in series [2], the MRT came to 5.07 h and the time of peak concentration (Tmax) came to 3.33 h.

The values are drawn from patent US11718611B2, “Benzenesulfonylbenazamide compound for inhibiting BCL-2 protein and composition and use thereof” (Shenzhen TargetRx, Inc., priority 2017, dated 2023).
